Data as given in US10226509B2, “Lymphangiogenesis inhibitors for cancer and for graft survival” (TUFTS UNIVERSITY, priority 2014, dated 2019).
“Also recorded” adds a separate entry of the source.

Assays:
LEC spheroids = test: LEC sprouting assay: stimulation by galectins alone; assay type: cell-based, human
Experimental: LEC spheroids were generated by seeding primary LECs at passage 4 or 5 in each well of 384-well hanging-drop plates (3D Biomatrix) in complete EGM-2 MV medium containing 0.25% methyl cellulose according to the manufacturer's instructions (750 cells/well). After 18 hours, LEC spheroids were collected, resuspended in serum-free EBM-2 basal medium, and mixed with collagen solution (PureCol collagen, Advanced BioMatrix, 2.2 mg/ml in M199 medium, pH adjusted to 7.4 with NaHCO3 and NaOH). Aliquots of the LEC spheroid/collagen mixture (250 μl/well of 48-well plate) were incubated in the presence or absence of various test agents for 24 hr. At the end of the incubation period, spheroids were stained with Calcein AM (Invitrogen, 1 μg/mL, 37° C., and 30 min). Fluorescent images were acquired using the EVOS FL cell imaging system, pixels were inverted for better visualization and cumulative length of each sprout was calculated. Results were expressed as fold change compared to corresponding controls. It was observed that sprout lengths vary from passages to passages. Test agents used included thiodigalactoside (10 to 50 mM, Carbosynth), 3′-sialyl lactose (2 to 10 mM, Carbosynth), 6′-sialyl lactose (2 to 10 mM, Carbosynth), LY294002 (20 μM, Abeam), U0126 (20 μM, Abeam), PD0325901 (1 μM, Selleckchem), human VEGFR-3-Fc chimera (10 μg/ml, R&D), human VEGFR-2-Fc chimera (10 μg/ml, R&D), Avastin (10 μg/ml, bevacizumab, Genentech/Roche), human control IgG (10 μg/ml, Southern Biotech), anti-human podoplanin functional grade antibody (10 μg/ml, eBioscience), and rat IgG2a κ isotype control functional grade antibody (10 μg/ml, eBioscience).
To assess the effect of galectins on LEC sprouting, LEC spheroids were embedded in a collagen matrix and incubated with media containing various test agents. After 24 hours, the cumulative length of the sprouts for each spheroid was quantified by ImageJ. […] Multiple approaches were used to determine whether the stimulatory effect of Gal-8 on LEC sprouting was carbohydrate-dependent.

ERK1/2 = test: Western blot of ERK activation in primary LECs; assay type: cell-based, human; details: 0.5 μM for 0 to 60 minutes or 0 to 0.5 μM for 30 minutes
Experimental: Primary LECs were lysed with Triton lysis buffer supplemented with protease inhibitor cocktail and Phos-STOP phosphatase inhibitor cocktail (Roche), and subjected to electrophoresis in 4-15% SDS-PAGE gels (Bio-Rad). Protein blots of the gels were blocked with 0.5×Odyssey® blocking buffer (OBB, Li-COR). For AKT and ERK signaling, blots were incubated with primary antibodies (rabbit anti-ERK1/2, 1:7500, Cell Signaling Technology; mouse anti-phospho-ERK1/2, Thr202/Tyr204, 1:2000, Cell Signaling Technology; mouse anti-AKT1/2/3, 1:2000, Cell Signaling Technology; rabbit anti-phospho-AKT, Ser473, 1:1500, Cell Signaling Technology) overnight at 4° C. Blots were washed with 0.5% Tween-20/PBS three times, and were incubated with appropriate secondary antibodies (donkey anti-rabbit IRDye 680LT and anti-mouse IRDye 800CW, Li-Cor) for 45 min at 25° C. The blots were scanned by an Odyssey® Infrared Imaging System using Image Studio v2.0 software (Li-COR). […] Signals were detected by Odyssey® Infrared Imaging System. […]

PDPN = target: T1, PDPN (Homo sapiens, UniProt Q86YL7); test: Affinity precipitation assay, PDPN; assay type: binding; details: galectin-conjugated agarose beads, LEC lysates
T1 construct: Within the whole cell lysate, an anti-PDPN-reactive 43-kDa component was detected; host or cells: primary lymphatic endothelial cells (LECs)
T1 sequence (Q86YL7 23-162): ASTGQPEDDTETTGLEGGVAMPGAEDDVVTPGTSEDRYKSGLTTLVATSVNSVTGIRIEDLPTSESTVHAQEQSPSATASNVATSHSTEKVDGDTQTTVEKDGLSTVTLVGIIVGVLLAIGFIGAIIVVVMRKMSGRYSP
Experimental: Five mg of plant lectins (Vector Labs) and galectins were conjugated to 330 mg of Pierce® NHS-activated agarose dry resin in accordance with the manufacturer's instructions (Thermo Scientific). Primary LECs (Lonza) were lysed in Triton lysis buffer (20 mM Tris-HCl, pH 7.4; 150 mM NaCl; 0.5% Triton X-100 with protease inhibitor cocktail). LEC lysates (250 μg in 500 μL lysis buffer supplemented with 10 mM MgCl2) were incubated with 40 μL (50% slurry) of agarose-conjugated lectins (4° C., overnight). Beads were pelleted by centrifugation at 3000 rpm for 1 min. Non-specific binding proteins were removed by washing the beads with Triton lysis buffer once and PBS twice. Supernatants were discarded; bound proteins were eluted by boiling the beads with 20 μL of 2× Laemmli sample buffer for 7 min, and examined by western blotting.
To determine whether PDPN binds to Gal-8 in a carbohydrate-dependent manner, LEC lysates were incubated with Gal-8-conjugated to agarose beads in the presence or absence of 0.1 M of lactose (an inhibiting sugar) or sucrose (a non-inhibiting sugar). Bound proteins were examined with total cell lysates (input) by western blot using an anti-PDPN antibody. To determine specificity of PDPN binding to Gal-8, LEC lysates were also incubated with agarose beads conjugated to Gal-1, Gal-3 and Gal-7. Within the whole cell lysate, an anti-PDPN-reactive 43-kDa component was detected (FIG. 7A).

In the case of “Gal-8: recombinant galectin-8, tandem-repeat type galectin with two different CRDs”, the “promotion of LEC sprouting by the agent alone (in words)” value (LEC spheroids; 24 hours) is reported as “concentration-dependent and was comparable to that of VEGF-C; also recorded: promotes LEC sprouting”, the “Hill's coefficient (nH) of galectin-8-mediated LEC sprouting” value (LEC spheroids; dose-response curve) is reported as 3.7 and the EC50 (LEC spheroids; sprouting activity at 0.75 μM set at 100%, read-out: EC50 of galectin-8-mediated LEC sprouting) is reported as 0.52 µM. The “phosphorylation of ERK1/2 (in words)” value (ERK1/2) was “induced phosphorylation of AKT and ERK1/2 in time- and dose-dependent manner” and the “binding of PDPN (in words)” value (PDPN) was “binds”.
